In patent US5106407A, “Iodones and methods for antimicrobial use” (priority 1989, dated 1992):

Experiments:
[1] = test system: mixture of bacterial organisms listed in Table 1; assay: cutting oil preservation test
Method: (§1) Fifty gram aliquots of the latex were placed in sterile bottles and one hundred gram aliquots of the diluted cutting oil were placed in 250-mL Erlenmeyer flasks. An appropriate amount of a fresh 1 percent stock solution of (2-nitrophenyl)-iodonium 2,2-dimethyl-4,6-dioxo-1,3-dioxan-5-ylide in acetone-water was added to achieve the desired final concentrations (see Tables 5 and 6). A small portion of the respective latex or cutting oil preparation was then streaked onto Tryptic Soy Agar (TSA) petri plates using sterile cotton swabs to determine whether the preparations were sterile. If the particular preparation was sterile, it was then inoculated with an appropriate volume (0.1 mL for the latex and 0.2 mL for the cutting oil) of a mixture of equal aliquots of 24 hr cultures of each of the bacterial organisms listed in Table 1 (not the fungi and yeast). The latex samples were incubated at 30° C. and the cutting oils were agitated on a rotary shaker at room temperature. After 24 hr, all samples were again streaked on TSA. All plates were then incubated at 30° C. for 48 hr and then rated 1 to 10 according to the growth rating system described in Table 4.
(§2) The results from this first set of streaks after inoculation are listed in the columns labeled streak number 1 in Tables 5 and 6. Samples with a rating of 3 or less from streak number 1 were reinoculated as described for the first inoculation above. Samples with a rating of 4 or greater were not reinoculated. After another 24 hr all samples were again restreaked on TSA agar. The results from these second streaks were labeled streak number 2 in Tables 5 and 6. Samples were reinoculated and restreaked in this fashion for a maximum of 10 streaks. Any samples with two streaks in a row with a ten rating were not restreaked again.

[2] = test system: bacteria listed in Table I, Klebsiella oxytoca, Enterobacter gergoviae, Pseudomonas putida #1, and Pseudomonas putida #2; assay: hand lotion preservation test
Method: as §1, §2
The ingredients of the hand creme, hand lotion, and protein shampoo are listed in Tables 7, 8 and 9, respectively. In the cosmetic preservative procedures, the stock solution of (2-nitrophenyl)-iodonium 2,2-dimethyl-4,6-dioxo-1,3-dioxan-5-ylide) was made in dimethylformamide (DMF)/water solution. In addition to the bacteria listed in Table I, the following bacteria were also included in the inocula: Klebsiella oxytoca, Enterobacter gergoviae, Pseudomonas putida #1, and Pseudomonas putida #2.
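Note: colony count scale from 1 for no colonies up to 10 for a solid mass.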

## CC1(C)OC(=O)[C-]([I+]c2ccccc2[N+](=O)[O-])C(=O)O1 [Example 19, (2-Nitrophenyl)-iodonium 2,2-dimethyl-4,6-dioxo-1,3-dioxan-5-ylide]
[1]; 25 ppm, streak 1
  growth rating: 1 (0)
[1]; 25 ppm, streak 2
  growth rating: 9
[1]; 25 ppm, streak 3
  growth rating: 10
[1]; 25 ppm, streak 4, restreaking not continued
  growth rating: 10
[1]; 50 ppm, streak 1
  growth rating: 1 (0)
[1]; 50 ppm, streak 2
  growth rating: 2 (1-4)
[1]; 50 ppm, streak 3
  growth rating: 10
[1]; 50 ppm, streak 4, restreaking not continued
  growth rating: 10
[1]; 100 ppm, streak 1
  growth rating: 1 (0)
[1]; 100 ppm, streak 2
  growth rating: 2 (1-4)
[1]; 100 ppm, streak 3
  growth rating: 2 (1-4)
[1]; 100 ppm, streak 4
  growth rating: 1 (0)
[1]; 100 ppm, streak 5
  growth rating: 10
[1]; 100 ppm, streak 6, restreaking not continued
  growth rating: 10
[1]; 250 ppm, streak 1
  growth rating: 1 (0)
[1]; 250 ppm, streak 2
  growth rating: 1 (0)
[1]; 250 ppm, streak 3
  growth rating: 1 (0)
[1]; 250 ppm, streak 4
  growth rating: 1 (0)
[1]; 250 ppm, streak 5
  growth rating: 1 (0)
[1]; 250 ppm, streak 6
  growth rating: 1 (0)
[1]; 250 ppm, streak 7
  growth rating: 1 (0)
[1]; 250 ppm, streak 8
  growth rating: 1 (0)
[1]; 250 ppm, streak 9
  growth rating: 6 (51-100)
[1]; 250 ppm, streak 10
  growth rating: 10
[1]; 500 ppm, streak 1
  growth rating: 1 (0)
[1]; 500 ppm, streak 2
  growth rating: 1 (0)
[1]; 500 ppm, streak 3
  growth rating: 1 (0)
[1]; 500 ppm, streak 4
  growth rating: 1 (0)
[1]; 500 ppm, streak 5
  growth rating: 1 (0)
[1]; 500 ppm, streak 6
  growth rating: 1 (0)
[1]; 500 ppm, streak 7
  growth rating: 1 (0)
[1]; 500 ppm, streak 8
  growth rating: 1 (0)
[1]; 500 ppm, streak 9
  growth rating: 1 (0)
[1]; 500 ppm, streak 10
  growth rating: 1 (0)
[1]; 1000 ppm, streak 1
  growth rating: 1 (0)
[1]; 1000 ppm, streak 2
  growth rating: 1 (0)
[1]; 1000 ppm, streak 3
  growth rating: 1 (0)
[1]; 1000 ppm, streak 4
  growth rating: 1 (0)
[1]; 1000 ppm, streak 5
  growth rating: 1 (0)
[1]; 1000 ppm, streak 6
  growth rating: 1 (0)
[1]; 1000 ppm, streak 7
  growth rating: 1 (0)
[1]; 1000 ppm, streak 8
  growth rating: 1 (0)
[1]; 1000 ppm, streak 9
  growth rating: 1 (0)
[1]; 1000 ppm, streak 10
  growth rating: 1 (0)
[2]; 10 ppm, streak 1
  growth rating: 1 (0)
[2]; 10 ppm, streak 2
  growth rating: 1 (0)
[2]; 10 ppm, streak 3
  growth rating: 2 (1-4)
[2]; 10 ppm, streak 6
  growth rating: 9
[2]; 10 ppm, streak 8
  growth rating: 9
[2]; 10 ppm, streak 9
  growth rating: 10
[2]; 10 ppm, streak 10
  growth rating: 10
[2]; 25 ppm, streak 1
  growth rating: 1 (0)
[2]; 25 ppm, streak 2
  growth rating: 1 (0)
[2]; 25 ppm, streak 3
  growth rating: 1 (0)
[2]; 25 ppm, streak 4
  growth rating: 1 (0)
[2]; 25 ppm, streak 5
  growth rating: 1 (0)
[2]; 25 ppm, streak 6
  growth rating: 1 (0)
[2]; 25 ppm, streak 7
  growth rating: 1 (0)
[2]; 25 ppm, streak 8
  growth rating: 1 (0)
[2]; 25 ppm, streak 9
  growth rating: 1 (0)
[2]; 25 ppm, streak 10
  growth rating: 2 (1-4)
[2]; 50 ppm, streak 1
  growth rating: 1 (0)
[2]; 50 ppm, streak 2
  growth rating: 1 (0)
[2]; 50 ppm, streak 3
  growth rating: 1 (0)
[2]; 50 ppm, streak 4
  growth rating: 1 (0)
[2]; 50 ppm, streak 5
  growth rating: 1 (0)
[2]; 50 ppm, streak 6
  growth rating: 1 (0)
[2]; 50 ppm, streak 7
  growth rating: 1 (0)
[2]; 50 ppm, streak 8
  growth rating: 1 (0)
[2]; 50 ppm, streak 9
  growth rating: 1 (0)
[2]; 50 ppm, streak 10
  growth rating: 1 (0)
[2]; 100 ppm, streak 1
  growth rating: 1 (0)
[2]; 100 ppm, streak 2
  growth rating: 1 (0)
[2]; 100 ppm, streak 3
  growth rating: 1 (0)
[2]; 100 ppm, streak 4
  growth rating: 1 (0)
[2]; 100 ppm, streak 5
  growth rating: 1 (0)
[2]; 100 ppm, streak 6
  growth rating: 1 (0)
[2]; 100 ppm, streak 7
  growth rating: 1 (0)
[2]; 100 ppm, streak 8
  growth rating: 1 (0)
[2]; 100 ppm, streak 9
  growth rating: 1 (0)
[2]; 100 ppm, streak 10
  growth rating: 1 (0)
